The values below come from patent US6147068A, “Lipophilic polyamine esters for the site specific delivery of nitric oxide in pharmaceutical use” (The University of Akron, priority 1998, dated 2000).

A short description of this series: Nitric oxide release profile of NONOates (nitric oxide analyzer). The class given is physicochemical. As for the experimental part:
Using a Monitor Labs Model 8440 Nitric Oxide Analyzer, interfaced with an HP 3396 A Chromatography Integrator, the nitric oxide release from the above synthesized NONOates was measured. […] Teflon® flow meters were inserted at the beginning of the circuit just before entry into the analyzer, and a helium tank with regulator was connected to the first flow meter.
The release profile was performed by adding about 3 to about 8 mg of the NO donor molecules prepared above to 25 ml of phosphate-buffered saline (PBS) (pH 7.4) in an impinger bottle that was subjected to continuous stirring. Varying amounts of the lung surfactant Survanta was added to certain samples, as were the surfactants Tween® 20 and Tween® 80. Tween® is available from Fisher Scientific Company, Fair Lawn, N.J. Still in other examples, the NONOates were simply dissolved in THF. Although the NONOates are insoluble in aqueous solution, sonication pulverized the compound adequately to produce fine particles that increased the surface area of the compound allowing a suspension to form. Once the impinger bottle was assembled, it was held in a water sonicator bath and sonicated until the insoluble sample was pulverized into fine particles or an emulsion. The amount of liberated NO was determined by the daily or timely flushing of helium through the solution and into the analyzer. Typically, measurements were taken every 2-4 hours during the first 18 hours and then every 12 hours thereafter. Eventually, readings only needed to be taken every 24 hours as the end of the release profile was approached. Helium gas was flushed through the system at 12 psig and the first flow meter was set to 150 ml/min. The second flow meter was adjusted to allow maximum flow. The released data was then used to compile the release profiles represented in FIGS. 3-10. The release profiles as represented in FIGS. 3-10 depict NO release from the NONOates in nmol NO/mg NONOate versus time in hours.
Based on these release profiles, the half-life and % Release for each NONOate prepared above was calculated and is represented in Table I, which represents NO release in PBS at pH 7.4.

For the compound `CC(C)CCC[C@@H](C)[C@H]1CC[C@H]2[C@@H]3CC=C4C[C@@H](OC(=O)CCN(CCCCN)[N+]([O-])=NO)CC[C@]4(C)[C@H]3CC[C@]12C` [CPNO, Cholesterylputreanine-NONOate], the half-life (1% survanta, half-life (NO release)) is 62 h; the half-life (5% & 10% survanta, half-life (NO release)) was 39 h; the half-life (5% tween 20, half-life (NO release)) is 104 h; the half-life (10% tween 20, half-life (NO release)) is 72 h; the half-life (pbs, pH 7.4, half-life (NO release)) is 60 h; the half-life (thf, pH 1, half-life (NO release)) is 21 h. Also, the “half-life (NO release)” value (pbs, pH 7.4) is “about 60 hr”.

As to Dihexadecanylspermate-NONOate [DiHSNO], under “PBS, pH 7.4”, the “% Release (NO)” value is recorded as “about 7.4%”.

As a reminder, the half-life is the time needed for the level to fall by half in the phase considered. High values mean slow decline, low ones rapid decline.
